Test results from ChEMBL document CHEMBL1140820, “beta-N-Biaryl ether sulfonamide hydroxamates as potent gelatinase inhibitors: part 2. Optimization of alpha-amino substituents” (Bioorg Med Chem Lett, 2008).

What was measured:
[1] = Selectivity for MMP9 over MMP2
[2] = target: Matrix metalloproteinase-9 (Homo sapiens, UniProt P14780); experiment: Inhibition of MMP9
[3] = target: 72 kDa type IV collagenase (Homo sapiens, UniProt P08253); experiment: Inhibition of MMP2
Interstitial collagenase = target: T1, Interstitial collagenase (Homo sapiens, UniProt P03956); experiment: Inhibition of MMP1
T1 sequence (P03956 whole entry): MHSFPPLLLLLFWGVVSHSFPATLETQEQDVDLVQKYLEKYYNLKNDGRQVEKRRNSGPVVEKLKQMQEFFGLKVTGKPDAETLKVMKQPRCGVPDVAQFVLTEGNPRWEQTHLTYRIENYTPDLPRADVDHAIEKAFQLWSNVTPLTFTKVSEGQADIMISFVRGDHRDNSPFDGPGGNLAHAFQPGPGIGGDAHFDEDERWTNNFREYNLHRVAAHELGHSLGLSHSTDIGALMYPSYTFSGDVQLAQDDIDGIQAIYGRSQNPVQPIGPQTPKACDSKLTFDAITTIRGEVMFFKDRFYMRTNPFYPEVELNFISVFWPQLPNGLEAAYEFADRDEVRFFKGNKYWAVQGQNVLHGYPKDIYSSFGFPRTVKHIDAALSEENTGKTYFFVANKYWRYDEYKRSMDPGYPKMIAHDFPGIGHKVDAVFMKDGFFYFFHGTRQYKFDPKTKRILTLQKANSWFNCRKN

Collagenase 3 = Collagenase 3 (Homo sapiens, UniProt P45452); experiment: Inhibition of MMP13
[4] = Metabolic stability in rat liver microsomes assessed as half life […]; assay type: ADME, Microsome
[5] = Protein binding in rat at 0.5 mg/kg, iv; assay type: ADME, organism-based; parameters: dose 0.5 mg/kg, route intravenous; conditions: plasma, read-out: PPB (converted)
[6] = Volume of distribution at steady state in rat at 0.5 mg/kg, iv; assay type: ADME, organism-based; parameters: dose 0.5 mg/kg, route intravenous; conditions: in vivo, read-out: Vdss
[7] = Metabolic stability in human liver microsomes assessed as half life […]; assay type: ADME, Microsome
[8] = Apparent elimination half life in rat at 0.5 mg/kg, iv; assay type: ADME, organism-based; parameters: dose 0.5 mg/kg, route intravenous; conditions: in vivo, read-out: beta t1/2 (converted)
[9] = Clearance in rat at 0.5 mg/kg, iv; assay type: ADME, organism-based; parameters: dose 0.5 mg/kg, route intravenous; conditions: in vivo
[10] = AUC in rat at 0.5 mg/kg, iv; assay type: ADME, organism-based; parameters: dose 0.5 mg/kg, route intravenous; conditions: plasma
[11] = Cmax in rat at 0.5 mg/kg, iv; assay type: ADME, organism-based; parameters: dose 0.5 mg/kg, route intravenous; conditions: in vivo
[12] = Aqueous solubility at pH 2.0; assay type: physicochemical
[13] = Aqueous solubility at pH 7.0; assay type: physicochemical

Chain of 72 kDa type IV collagenase (P08253 whole entry): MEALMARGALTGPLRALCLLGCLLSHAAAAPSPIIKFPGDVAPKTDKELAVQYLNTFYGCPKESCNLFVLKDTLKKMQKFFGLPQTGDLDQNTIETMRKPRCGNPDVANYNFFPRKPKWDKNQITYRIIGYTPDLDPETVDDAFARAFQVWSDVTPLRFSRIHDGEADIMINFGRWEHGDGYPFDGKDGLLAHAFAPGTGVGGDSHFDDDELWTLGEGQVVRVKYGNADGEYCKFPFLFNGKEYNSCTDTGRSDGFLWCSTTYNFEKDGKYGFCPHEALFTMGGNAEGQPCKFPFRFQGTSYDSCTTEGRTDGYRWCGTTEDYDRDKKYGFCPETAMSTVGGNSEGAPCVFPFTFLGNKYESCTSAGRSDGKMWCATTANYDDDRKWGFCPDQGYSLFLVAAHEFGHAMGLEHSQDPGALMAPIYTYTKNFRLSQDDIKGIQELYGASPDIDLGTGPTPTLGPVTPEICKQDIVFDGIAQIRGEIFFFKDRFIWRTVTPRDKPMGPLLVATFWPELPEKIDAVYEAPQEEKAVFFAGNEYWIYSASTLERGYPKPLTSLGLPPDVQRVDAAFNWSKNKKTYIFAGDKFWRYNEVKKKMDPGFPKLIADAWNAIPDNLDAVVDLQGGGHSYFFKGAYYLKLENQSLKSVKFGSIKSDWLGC
Chain of Matrix metalloproteinase-9 (P14780 whole entry): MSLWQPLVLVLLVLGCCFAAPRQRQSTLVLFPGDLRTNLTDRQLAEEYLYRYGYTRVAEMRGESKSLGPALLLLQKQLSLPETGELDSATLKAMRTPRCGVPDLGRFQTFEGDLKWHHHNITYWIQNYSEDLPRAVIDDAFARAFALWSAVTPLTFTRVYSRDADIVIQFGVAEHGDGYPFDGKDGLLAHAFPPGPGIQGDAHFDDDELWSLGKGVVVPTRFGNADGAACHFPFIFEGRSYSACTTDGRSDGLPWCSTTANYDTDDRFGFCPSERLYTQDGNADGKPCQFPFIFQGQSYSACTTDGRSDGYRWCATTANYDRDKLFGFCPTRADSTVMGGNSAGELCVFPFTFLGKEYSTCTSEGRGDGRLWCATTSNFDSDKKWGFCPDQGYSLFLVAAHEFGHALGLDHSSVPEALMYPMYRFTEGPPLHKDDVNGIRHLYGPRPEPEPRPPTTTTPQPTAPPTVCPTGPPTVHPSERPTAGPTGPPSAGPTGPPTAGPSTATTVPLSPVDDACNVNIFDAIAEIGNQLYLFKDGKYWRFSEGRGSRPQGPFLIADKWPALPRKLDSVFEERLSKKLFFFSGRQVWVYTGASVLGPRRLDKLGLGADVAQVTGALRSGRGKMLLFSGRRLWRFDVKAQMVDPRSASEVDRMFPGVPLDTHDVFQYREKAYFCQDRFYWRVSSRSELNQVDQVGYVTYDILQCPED

Cc1ccc(Oc2ccc(N(C[C@H](Nc3ccc(F)cc3)C(=O)NO)S(C)(=O)=O)cc2)cc1
Ratio IC50 [1]: 49.2
IC50 [2]: 1.3 nM

CS(=O)(=O)N(C[C@H](O)C(=O)NO)c1ccc(Oc2ccc(Cl)cc2)cc1
Ratio IC50 [1]: 7.4
IC50 [2]: 4.7 nM
IC50 [3]: 35 nM

CS(=O)(=O)N(C[C@H](O)C(=O)NO)c1ccc(Oc2ccc(C(F)(F)F)cc2)cc1
Ratio IC50 [1]: 9.9
IC50 (Interstitial collagenase): > 10 µM
IC50 [2]: 14 nM
IC50 [3]: 139 nM

CS(=O)(=O)N(C[C@@H](C(=O)NO)N1CCS(=O)(=O)CC1)c1ccc(Oc2ccc(C(F)(F)F)cc2)cc1
Ratio IC50 [1]: 2.8
IC50 [2]: 1.7 nM
IC50 [3]: 4.8 nM

CNC(=O)C1CCN([C@@H](CN(c2ccc(Oc3ccc(C(F)(F)F)cc3)cc2)S(C)(=O)=O)C(=O)NO)CC1
Ratio IC50 [1]: 2.2
IC50 [2]: 2.5 nM
IC50 [3]: 5.5 nM

Cc1ccc(Oc2ccc(N(C[C@H](Nc3ccccc3)C(=O)NO)S(C)(=O)=O)cc2)cc1
Ratio IC50 [1]: 25
IC50 [2]: 0.52 nM
IC50 [3]: 13 nM

CC(=O)N1CCN([C@@H](CN(c2ccc(Oc3ccc(C(F)(F)F)cc3)cc2)S(C)(=O)=O)C(=O)NO)CC1
Ratio IC50 [1]: 1.8

C[C@@H]1CN([C@@H](CN(c2ccc(Oc3ccc(C(F)(F)F)cc3)cc2)S(C)(=O)=O)C(=O)NO)C[C@H](C)O1
Ratio IC50 [1]: 5.1
IC50 [2]: 1.1 nM
IC50 [3]: 5.6 nM

Cc1ccc(Oc2ccc(N(C[C@H](NCc3cccnc3)C(=O)NO)S(C)(=O)=O)cc2)cc1
Ratio IC50 [1]: 6.1
IC50 [2]: 2.8 nM
IC50 [3]: 17 nM

CS(=O)(=O)N(C[C@@H](C(=O)NO)N1CCOCC1)c1ccc(Oc2ccc(Cl)cc2)cc1
Ratio IC50 [1]: 2.8

Cc1ccc(Oc2ccc(N(C[C@H](NC(=O)C(C)C)C(=O)NO)S(C)(=O)=O)cc2)cc1
Ratio IC50 [1]: 13
IC50 [2]: 5.4 nM
IC50 [3]: 70 nM

Cc1ccc(Oc2ccc(N(C[C@H](Nc3cccc(Cl)c3)C(=O)NO)S(C)(=O)=O)cc2)cc1
Ratio IC50 [1]: 16.6
IC50 [2]: 20 nM

COc1cccc(N[C@@H](CN(c2ccc(Oc3ccc(C)cc3)cc2)S(C)(=O)=O)C(=O)NO)c1
Ratio IC50 [1]: 43.5
IC50 (Interstitial collagenase): > 10 µM

C[C@@H]1CN([C@@H](CN(c2ccc(Oc3ccc(Cl)cc3)cc2)S(C)(=O)=O)C(=O)NO)C[C@H](C)O1
Ratio IC50 [1]: 5.4
IC50 [2]: 0.46 nM
IC50 [3]: 2.5 nM

Cc1ccc(Oc2ccc(N(C[C@H](O)C(=O)NO)S(C)(=O)=O)cc2)cc1
IC50 [2]: 7.8 nM
IC50 [3]: 61 nM

Cc1ccc(Oc2ccc(N(C[C@H](C(=O)NO)N3CCOCC3)S(C)(=O)=O)cc2)cc1
Ratio IC50 [1]: 4.5

CC(C)N(Cc1ccccc1)[C@@H](CN(c1ccc(Oc2ccc(C(F)(F)F)cc2)cc1)S(C)(=O)=O)C(=O)NO
Ratio IC50 [1]: 4.1

Cc1ccc(Oc2ccc(N(C[C@@H](NC(C)C)C(=O)NO)S(C)(=O)=O)cc2)cc1
Ratio IC50 [1]: 5.7
IC50 [2]: 31 nM
IC50 [3]: 178 nM

CC(C)N(C)[C@@H](CN(c1ccc(Oc2ccc(C(F)(F)F)cc2)cc1)S(C)(=O)=O)C(=O)NO
Ratio IC50 [1]: 2.7
IC50 [2]: 8.8 nM
IC50 [3]: 24 nM

Cc1ccc(Oc2ccc(N(C[C@@H](C(=O)NO)N3C[C@@H](C)O[C@@H](C)C3)S(C)(=O)=O)cc2)cc1
Ratio IC50 [1]: 4.1

Cc1ccc(Oc2ccc(N(C[C@H](NCc3ccccc3)C(=O)NO)S(C)(=O)=O)cc2)cc1
Ratio IC50 [1]: 28.4

Cc1ccc(Oc2ccc(N(C[C@H](N[C@H](C)c3ccccc3)C(=O)NO)S(C)(=O)=O)cc2)cc1
Ratio IC50 [1]: 16
IC50 [2]: 1.5 nM

CC(C)N[C@@H](CN(c1ccc(Oc2ccc(C(F)(F)F)cc2)cc1)S(C)(=O)=O)C(=O)NO
Ratio IC50 [1]: 3.8
IC50 (Interstitial collagenase): > 10 µM
IC50 [2]: 2.4 nM

Cc1ccc(Oc2ccc(N(C[C@H](NCc3ccccn3)C(=O)NO)S(C)(=O)=O)cc2)cc1
Ratio IC50 [1]: 3.6

CC(C)N(CCNC(=O)OCc1ccccc1)[C@@H](CN(c1ccc(Oc2ccc(C(F)(F)F)cc2)cc1)S(C)(=O)=O)C(=O)NO
Ratio IC50 [1]: 9

O=C1NC(=O)C2(CCC(=O)N2c2ccc(Oc3ccc(Cl)cc3)cc2)C(=O)N1
Ki [2]: 0.7 nM
Ki (Collagenase 3): 1 nM
Ki [3]: 0.4 nM

CS(=O)(=O)N1CCN([C@@H](CN(c2ccc(Oc3ccc(C(F)(F)F)cc3)cc2)S(C)(=O)=O)C(=O)NO)CC1
Ratio IC50 [1]: 3.1
IC50 [2]: 3.2 nM
IC50 [3]: 9.9 nM

CS(=O)(=O)N(C[C@@H](C(=O)NO)N1CCCCC1)c1ccc(Oc2ccc(C(F)(F)F)cc2)cc1
Ratio IC50 [1]: 3.3
IC50 [2]: 2.3 nM

Cc1ccc(Oc2ccc(N(C[C@H](Nc3cccc(F)c3)C(=O)NO)S(C)(=O)=O)cc2)cc1
half-life [4]: < 9 min
fraction unbound [5]: 0.003
Vd [6]: 2.89 L/kg
half-life [7]: < 9 min
Ratio IC50 [1]: 59.6
half-life [8]: 36 min
clearance [9]: 66.9 mL/min/kg
AUC [10]: 130 ng·h/mL
Cmax [11]: 620 nM
IC50 [2]: 0.89 nM

Cc1ccc(Oc2ccc(N(C[C@H](NC3CCCC3)C(=O)NO)S(C)(=O)=O)cc2)cc1
Ratio IC50 [1]: 5.9

Cc1ccc(Oc2ccc(N(C[C@H](NC(C)C)C(=O)NO)S(C)(=O)=O)cc2)cc1
half-life [4]: < 9 min
fraction unbound [5]: 0.16
Vd [6]: 0.49 L/kg
half-life [7]: 49 min
Ratio IC50 [1]: 7.7
half-life [8]: 9.6 min
clearance [9]: 35 mL/min/kg
AUC [10]: 250 ng·h/mL
Cmax [11]: 2680 nM
IC50 [2]: 0.52 nM
IC50 [3]: 4 nM

Cc1ccc(Oc2ccc(N(C[C@H](NCc3ccncc3)C(=O)NO)S(C)(=O)=O)cc2)cc1
Ratio IC50 [1]: 5.3
IC50 [2]: 1.8 nM

Cc1ccc(Oc2ccc(N(C[C@H](Nc3ccc4ccccc4c3)C(=O)NO)S(C)(=O)=O)cc2)cc1
Ratio IC50 [1]: 16.6
IC50 [3]: 1400 nM

Cc1ccc(Oc2ccc(N(C[C@H](N)C(=O)NO)S(C)(=O)=O)cc2)cc1
Ratio IC50 [1]: 5.5

CS(=O)(=O)N(C[C@@H](C(=O)NO)N1CCC(O)CC1)c1ccc(Oc2ccc(C(F)(F)F)cc2)cc1
Ratio IC50 [1]: 3
IC50 [2]: 1.9 nM
IC50 [3]: 5.7 nM

Cc1ccc(Oc2ccc(N(C[C@H](N[C@@H](C)c3ccccc3)C(=O)NO)S(C)(=O)=O)cc2)cc1
Ratio IC50 [1]: 22.2
IC50 (Interstitial collagenase): > 10 µM
IC50 [3]: 12 nM

CS(=O)(=O)N(C[C@@H](C(=O)NO)N1CCC(c2ccccc2)CC1)c1ccc(Oc2ccc(C(F)(F)F)cc2)cc1
Ratio IC50 [1]: 2.7

Cc1ccc(Oc2ccc(N(C[C@@H](C(=O)NO)N3CCOCC3)S(C)(=O)=O)cc2)cc1
half-life [4]: 10 min
fraction unbound [5]: 0.42
solubility [12]: > 70 µg/mL
Vd [6]: 0.66 L/kg
half-life [7]: > 120 min
solubility [13]: > 70 µg/mL
Ratio IC50 [1]: 2.7
half-life [8]: 360 min
clearance [9]: 12.8 mL/min/kg
AUC [10]: 670 ng·h/mL
Cmax [11]: 3700 nM
IC50 [2]: 1.9 nM
IC50 [3]: 5.2 nM

Cc1ccc(Oc2ccc(N(C[C@H](NCC(C)C)C(=O)NO)S(C)(=O)=O)cc2)cc1
Ratio IC50 [1]: 8.8
IC50 (Interstitial collagenase): > 10 µM
IC50 [2]: 1.3 nM
IC50 [3]: 11 nM

CS(=O)(=O)N(C[C@@H](C(=O)NO)N1CCN(c2ccc(Cl)cc2)CC1)c1ccc(Oc2ccc(C(F)(F)F)cc2)cc1
Ratio IC50 [1]: 2.7

Cc1ccc(Oc2ccc(N(C[C@H](NC(C)C)C(=O)O)S(C)(=O)=O)cc2)cc1
IC50 (Interstitial collagenase): > 10 µM
IC50 [2]: > 10000 nM
IC50 [3]: > 10000 nM
